# Measured values: PubChem BioAssay AID1259407 (Chemical Carcinogenesis Research Information System (CCRIS), 2018)
# The source made the active and inactive calls. No rule for the calls is given here.
# Tested on: CCRIS mutagenicity, Ames/micronucleus/aberration tests
# Assay: CCRIS mutagenicity studies
# [1] = Test System: AMES SALMONELLA TYPHIMURIUM, Strain/Indicator: TA98, Metabolic Activation: NONE, Method: STANDARD PLATE
# [2] = Test System: AMES SALMONELLA TYPHIMURIUM, Strain/Indicator: TA98, Metabolic Activation: RAT, LIVER, S-9, AROCLOR 1254, Method: STANDARD PLATE
# [3] = Test System: AMES SALMONELLA TYPHIMURIUM, Strain/Indicator: TA100, Metabolic Activation: NONE, Method: STANDARD PLATE
# [4] = Test System: AMES SALMONELLA TYPHIMURIUM, Strain/Indicator: TA100, Metabolic Activation: RAT, LIVER, S-9, AROCLOR 1254, Method: STANDARD PLATE
# [5] = Test System: AMES SALMONELLA TYPHIMURIUM, Strain/Indicator: TA98, Metabolic Activation: NONE, Method: PREINCUBATION
# [6] = Test System: AMES SALMONELLA TYPHIMURIUM, Strain/Indicator: TA100, Metabolic Activation: NONE, Method: PREINCUBATION
# [7] = Test System: AMES SALMONELLA TYPHIMURIUM, Strain/Indicator: TA1535, Metabolic Activation: NONE, Method: PREINCUBATION
compound,measurement,setting,value
Cc1cc2c(C)c3ccccc3c(C)c2cc1C,mutagenic call,[1],active; positive
same,mutagenic call,[2],active; positive
same,mutagenic call,[3],inactive; negative
same,mutagenic call,[4],active; positive
CC1=CC(=O)c2nc(C)c3c([nH]c4ccccc43)c2C1=O,mutagenic call,"Test System: AMES SALMONELLA TYPHIMURIUM, Strain/Indicator: TA97, Metabolic Activation: NONE, Method: STANDARD PLATE",active; positive
same,mutagenic call,"Test System: AMES SALMONELLA TYPHIMURIUM, Strain/Indicator: TA97, Metabolic Activation: RAT, LIVER, S-9, AROCLOR 1254, Method: STANDARD PLATE",active; positive
same,mutagenic call,[1],active; positive
same,mutagenic call,[2],active; positive
same,mutagenic call,[3],active; positive
same,mutagenic call,[4],inactive; negative
same,mutagenic call,"Test System: AMES SALMONELLA TYPHIMURIUM, Strain/Indicator: TA102, Metabolic Activation: NONE, Method: STANDARD PLATE",inactive; negative
same,mutagenic call,"Test System: AMES SALMONELLA TYPHIMURIUM, Strain/Indicator: TA102, Metabolic Activation: RAT, LIVER, S-9, AROCLOR 1254, Method: STANDARD PLATE",inactive; negative
Cc1cccc2cc3c4c(cccc4c12)-c1ccccc1-3,mutagenic call,"Test System: AMES SALMONELLA TYPHIMURIUM, Strain/Indicator: TA100, Metabolic Activation: RAT, LIVER, S-9, AROCLOR 1254",active; positive
Nc1snc2ccc(Cl)cc12,mutagenic call,[1],inactive; negative
same,mutagenic call,"Test System: AMES SALMONELLA TYPHIMURIUM, Strain/Indicator: TA98, Metabolic Activation: S-9, Method: STANDARD PLATE",active; positive
same,mutagenic call,[3],inactive; negative
same,mutagenic call,"Test System: AMES SALMONELLA TYPHIMURIUM, Strain/Indicator: TA100, Metabolic Activation: S-9, Method: STANDARD PLATE",active; positive
same,mutagenic call,"Test System: AMES SALMONELLA TYPHIMURIUM, Strain/Indicator: TA1535, Metabolic Activation: NONE, Method: STANDARD PLATE",inactive; negative
same,mutagenic call,"Test System: AMES SALMONELLA TYPHIMURIUM, Strain/Indicator: TA1535, Metabolic Activation: S-9, Method: STANDARD PLATE",inactive; negative
same,mutagenic call,"Test System: AMES SALMONELLA TYPHIMURIUM, Strain/Indicator: TA1537, Metabolic Activation: NONE, Method: STANDARD PLATE",inactive; negative
same,mutagenic call,"Test System: AMES SALMONELLA TYPHIMURIUM, Strain/Indicator: TA1537, Metabolic Activation: S-9, Method: STANDARD PLATE",active; positive
Nc1cc(Cl)c(N)c(Cl)c1,mutagenic call,"End Point: IN VITRO CHROMOSOMAL ABERRATIONS, Test System: CHO CELLS, Metabolic Activation: NONE",active; positive; weak response
Nc1cnc2ccccc2c1,mutagenic call,[5],inactive; negative
same,mutagenic call,"Test System: AMES SALMONELLA TYPHIMURIUM, Strain/Indicator: TA98, Metabolic Activation: RAT, LIVER, S-9, KANECHLOR 500 OR PHENOBARBITAL AND BETA-NAPHTHOFLAVONE, Method: PREINCUBATION",active; positive
same,mutagenic call,[6],inactive; negative
same,mutagenic call,"Test System: AMES SALMONELLA TYPHIMURIUM, Strain/Indicator: TA100, Metabolic Activation: RAT, LIVER, S-9, KANECHLOR 500 OR PHENOBARBITAL AND BETA-NAPHTHOFLAVONE, Method: PREINCUBATION",active; positive
CC(O)C#N (centres undefined),mutagenic call,"Test System: AMES SALMONELLA TYPHIMURIUM, Strain/Indicator: TA97, Metabolic Activation: HAMSTER, LIVER, S-9, AROCLOR 1254 (10%), Method: PREINCUBATION",inactive; negative
same,mutagenic call,"Test System: AMES SALMONELLA TYPHIMURIUM, Strain/Indicator: TA97, Metabolic Activation: HAMSTER, LIVER, S-9, AROCLOR 1254 (30%), Method: PREINCUBATION",inactive; negative
same,mutagenic call,"Test System: AMES SALMONELLA TYPHIMURIUM, Strain/Indicator: TA97, Metabolic Activation: NONE, Method: PREINCUBATION",inactive; negative
same,mutagenic call,"Test System: AMES SALMONELLA TYPHIMURIUM, Strain/Indicator: TA97, Metabolic Activation: RAT, LIVER, S-9, AROCLOR 1254 (5%), Method: PREINCUBATION",inactive; negative
same,mutagenic call,"Test System: AMES SALMONELLA TYPHIMURIUM, Strain/Indicator: TA97, Metabolic Activation: RAT, LIVER, S-9, AROCLOR 1254 (10%), Method: PREINCUBATION",inactive; negative
same,mutagenic call,"Test System: AMES SALMONELLA TYPHIMURIUM, Strain/Indicator: TA97, Metabolic Activation: RAT, LIVER, S-9, AROCLOR 1254 (30%), Method: PREINCUBATION",inactive; negative
same,mutagenic call,"Test System: AMES SALMONELLA TYPHIMURIUM, Strain/Indicator: TA98, Metabolic Activation: HAMSTER, LIVER, S-9, AROCLOR 1254 (10%), Method: PREINCUBATION",inactive; negative
same,mutagenic call,"Test System: AMES SALMONELLA TYPHIMURIUM, Strain/Indicator: TA98, Metabolic Activation: HAMSTER, LIVER, S-9, AROCLOR 1254 (30%), Method: PREINCUBATION",inactive; negative
same,mutagenic call,[5],inactive; negative
same,mutagenic call,"Test System: AMES SALMONELLA TYPHIMURIUM, Strain/Indicator: TA98, Metabolic Activation: RAT, LIVER, S-9, AROCLOR 1254 (10%), Method: PREINCUBATION",inactive; negative
same,mutagenic call,"Test System: AMES SALMONELLA TYPHIMURIUM, Strain/Indicator: TA98, Metabolic Activation: RAT, LIVER, S-9, AROCLOR 1254 (30%), Method: PREINCUBATION",inactive; negative
same,mutagenic call,"Test System: AMES SALMONELLA TYPHIMURIUM, Strain/Indicator: TA100, Metabolic Activation: HAMSTER, LIVER, S-9, AROCLOR 1254 (10%), Method: PREINCUBATION",inactive; negative
same,mutagenic call,"Test System: AMES SALMONELLA TYPHIMURIUM, Strain/Indicator: TA100, Metabolic Activation: HAMSTER, LIVER, S-9, AROCLOR 1254 (30%), Method: PREINCUBATION",inactive; negative
same,mutagenic call,[6],inactive; negative
same,mutagenic call,"Test System: AMES SALMONELLA TYPHIMURIUM, Strain/Indicator: TA100, Metabolic Activation: RAT, LIVER, S-9, AROCLOR 1254 (5 OR 30%), Method: PREINCUBATION",inactive; negative
same,mutagenic call,"Test System: AMES SALMONELLA TYPHIMURIUM, Strain/Indicator: TA100, Metabolic Activation: RAT, LIVER, S-9, AROCLOR 1254 (10%), Method: PREINCUBATION",inactive; negative
same,mutagenic call,"Test System: AMES SALMONELLA TYPHIMURIUM, Strain/Indicator: TA1535, Metabolic Activation: HAMSTER, LIVER, S-9, AROCLOR 1254 (10%), Method: PREINCUBATION",inactive; negative
same,mutagenic call,"Test System: AMES SALMONELLA TYPHIMURIUM, Strain/Indicator: TA1535, Metabolic Activation: HAMSTER, LIVER, S-9, AROCLOR 1254 (30%), Method: PREINCUBATION",inactive; negative
same,mutagenic call,[7],inactive; negative
same,mutagenic call,"Test System: AMES SALMONELLA TYPHIMURIUM, Strain/Indicator: TA1535, Metabolic Activation: RAT, LIVER, S-9, AROCLOR 1254 (10%), Method: PREINCUBATION",inactive; negative
same,mutagenic call,"Test System: AMES SALMONELLA TYPHIMURIUM, Strain/Indicator: TA1535, Metabolic Activation: RAT, LIVER, S-9, AROCLOR 1254 (30%), Method: PREINCUBATION",inactive; negative
same,mutagenic call,"Test System: AMES SALMONELLA TYPHIMURIUM, Strain/Indicator: TA1537, Metabolic Activation: HAMSTER, LIVER, S-9, AROCLOR 1254 (30%), Method: PREINCUBATION",inactive; negative
same,mutagenic call,"Test System: AMES SALMONELLA TYPHIMURIUM, Strain/Indicator: TA1537, Metabolic Activation: RAT, LIVER, S-9, AROCLOR 1254 (30%), Method: PREINCUBATION",inactive; negative
CO[C@@H]1C[C@](C)(O)Cc2cc3c(c(O)c21)C(=O)c1c(O)cc2c(c1C3=O)O[C@@H]1O[C@@]2(C)[C@H](O)[C@@H](N(C)C)[C@@H]1O,mutagenic call,[5],inactive; negative
same,mutagenic call,"Test System: AMES SALMONELLA TYPHIMURIUM, Strain/Indicator: TA98, Metabolic Activation: RAT LIVER S-9, Method: PREINCUBATION",active; positive
same,mutagenic call,[6],inactive; negative
same,mutagenic call,"Test System: AMES SALMONELLA TYPHIMURIUM, Strain/Indicator: TA100, Metabolic Activation: RAT LIVER S-9, Method: PREINCUBATION",active; positive
same,mutagenic call,[7],inactive; negative
same,mutagenic call,"Test System: AMES SALMONELLA TYPHIMURIUM, Strain/Indicator: TA1535, Metabolic Activation: RAT LIVER S-9, Method: PREINCUBATION",inactive; negative
same,mutagenic call,"Test System: AMES SALMONELLA TYPHIMURIUM, Strain/Indicator: TA1537, Metabolic Activation: NONE, Method: PREINCUBATION",inactive; negative
same,mutagenic call,"Test System: AMES SALMONELLA TYPHIMURIUM, Strain/Indicator: TA1537, Metabolic Activation: RAT LIVER S-9, Method: PREINCUBATION",active; positive
same,mutagenic call,"Test System: E.COLI, Strain/Indicator: WP2 UVRA, Metabolic Activation: NONE, Method: PREINCUBATION",inactive; negative
same,mutagenic call,"Test System: E.COLI, Strain/Indicator: WP2 UVRA, Metabolic Activation: RAT LIVER S-9, Method: PREINCUBATION",inactive; negative
